The source made the active and inactive calls. The rule behind the calls is not given here.
Legend:
CWR22R = assay: Inhibition of colony formation in human 22Rv1 cells upto 3 uM incubated for 8 days by ethyl violet staining based analysis; assay type: functional, cell-based; conditions: time 8.0 day
PNT2 = assay: Cytotoxicity against human PNT2 cells assessed as growth inhibition measured for 5 days; assay type: toxicity, cell-based; conditions: pnt2, 120 h, time 5 day
[1] = molecular target: Histone-lysine N-methyltransferase, H3 lysine-79 specific (Homo sapiens) (UniProt Q8TEK3); assay: Inhibition of DOT1L (unknown origin) at 10 uM relative to control
[2] = molecular target: T1, von Hippel-Lindau disease tumor suppressor/Histone-lysine N-methyltransferase EHMT1 (Homo sapiens, UniProt Q9H9B1+P40337); assay: PROTAC activity at GLP/VHL in human 22Rv1 cells assessed as induction of GLP degradation at 3 uM incubated for 24 hrs by Western blot analysis relative to control; assay type: cell-based
[3] = molecular target: Protein arginine N-methyltransferase 8 (Homo sapiens) (UniProt Q9NR22); assay: Inhibition of PRMT8 (unknown origin) at 10 uM relative to control
[4] = molecular target: Histone-lysine N-methyltransferase EZH2 (Homo sapiens) (UniProt Q15910); assay: Inhibition of EZH2 (unknown origin) at 10 uM relative to control
[5] = molecular target: T2, von Hippel-Lindau disease tumor suppressor/Histone-lysine N-methyltransferase EHMT2 (Homo sapiens, UniProt Q96KQ7+P40337); assay: PROTAC activity at G9a/VHL in human 22Rv1 cells assessed as induction of G9a degradation at 1 uM incubated for 24 hrs by Western blot analysis; assay type: cell-based
Target sequence in this assay (P40337 whole entry partner): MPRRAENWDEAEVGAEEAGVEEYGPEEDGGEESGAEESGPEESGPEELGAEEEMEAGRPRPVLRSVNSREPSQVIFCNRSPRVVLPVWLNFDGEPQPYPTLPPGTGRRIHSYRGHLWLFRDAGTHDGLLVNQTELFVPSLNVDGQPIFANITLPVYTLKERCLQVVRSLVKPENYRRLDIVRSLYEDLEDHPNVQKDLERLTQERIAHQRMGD
Target sequence in this assay (Q96KQ7 2-1210 limits assumed): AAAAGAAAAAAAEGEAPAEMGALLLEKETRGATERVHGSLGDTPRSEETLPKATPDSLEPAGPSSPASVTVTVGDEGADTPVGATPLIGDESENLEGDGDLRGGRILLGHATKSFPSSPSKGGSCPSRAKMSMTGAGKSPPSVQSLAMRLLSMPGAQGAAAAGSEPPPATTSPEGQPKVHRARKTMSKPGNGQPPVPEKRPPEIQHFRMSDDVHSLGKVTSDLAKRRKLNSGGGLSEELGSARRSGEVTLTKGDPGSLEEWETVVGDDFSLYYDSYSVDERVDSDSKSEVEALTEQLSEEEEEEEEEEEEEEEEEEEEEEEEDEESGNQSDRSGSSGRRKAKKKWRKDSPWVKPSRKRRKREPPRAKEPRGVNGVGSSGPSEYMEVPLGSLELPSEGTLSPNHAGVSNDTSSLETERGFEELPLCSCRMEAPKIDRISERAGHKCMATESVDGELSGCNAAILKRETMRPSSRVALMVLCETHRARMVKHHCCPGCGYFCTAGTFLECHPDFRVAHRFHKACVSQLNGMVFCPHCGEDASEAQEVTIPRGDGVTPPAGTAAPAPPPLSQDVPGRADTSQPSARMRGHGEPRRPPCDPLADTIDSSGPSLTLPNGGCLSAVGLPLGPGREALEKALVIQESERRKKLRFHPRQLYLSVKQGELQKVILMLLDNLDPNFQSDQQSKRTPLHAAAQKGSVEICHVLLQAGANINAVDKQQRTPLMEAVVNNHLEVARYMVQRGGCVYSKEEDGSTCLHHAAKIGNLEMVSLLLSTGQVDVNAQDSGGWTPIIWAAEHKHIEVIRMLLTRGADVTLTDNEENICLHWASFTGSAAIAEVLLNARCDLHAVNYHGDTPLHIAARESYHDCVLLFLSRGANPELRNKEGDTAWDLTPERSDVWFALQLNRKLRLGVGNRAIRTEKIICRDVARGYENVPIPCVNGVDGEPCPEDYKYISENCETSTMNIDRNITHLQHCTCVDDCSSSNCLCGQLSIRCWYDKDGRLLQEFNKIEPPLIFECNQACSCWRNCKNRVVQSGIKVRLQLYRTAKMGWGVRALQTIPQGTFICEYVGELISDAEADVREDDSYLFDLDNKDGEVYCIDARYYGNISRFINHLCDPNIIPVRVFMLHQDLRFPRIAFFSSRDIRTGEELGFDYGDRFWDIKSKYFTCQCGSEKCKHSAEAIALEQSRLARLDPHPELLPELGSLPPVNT

[6] = molecular target: Histone-lysine N-methyltransferase, H3 lysine-36 specific (Homo sapiens) (UniProt Q96L73); assay: Inhibition of NSD1 (unknown origin) at 10 uM relative to control
K562 = assay: Cytotoxicity against human K562 cells assessed as reduction in cell viability incubated for 8 days; assay type: functional, cell-based; conditions: K562, 192 h
[7] = molecular target: T2, von Hippel-Lindau disease tumor suppressor/Histone-lysine N-methyltransferase EHMT2; assay: PROTAC activity at G9a/VHL in human 22Rv1 cells assessed as induction of G9a degradation at 0.3 uM incubated for 24 hrs by Western blot analysis relative to control; assay type: cell-based
Target sequence in this assay (P40337 whole entry partner): as the sequence (P40337 whole entry partner) above
Target sequence in this assay (Q96KQ7 2-1210 limits assumed): as the sequence (Q96KQ7 2-1210 limits assumed) above

[8] = molecular target: T2, von Hippel-Lindau disease tumor suppressor/Histone-lysine N-methyltransferase EHMT2; assay: PROTAC activity at G9a/VHL in human 22Rv1 cells assessed as induction of G9a degradation at 3 uM measured at 4 hrs by Western blot analysis; assay type: cell-based
Target sequence in this assay (P40337 whole entry partner): as the sequence (P40337 whole entry partner) above
Target sequence in this assay (Q96KQ7 2-1210 limits assumed): as the sequence (Q96KQ7 2-1210 limits assumed) above

[9] = molecular target: T1, von Hippel-Lindau disease tumor suppressor/Histone-lysine N-methyltransferase EHMT1; assay: PROTAC activity at GLP/VHL in human NCI-H1299 cells assessed as induction of GLP degradation at 3 uM incubated for 24 hrs by Western blot analysis; assay type: cell-based
[10] = molecular target: T2, von Hippel-Lindau disease tumor suppressor/Histone-lysine N-methyltransferase EHMT2; assay: PROTAC activity at G9a/VHL in human K562 cells assessed as induction of G9a degradation at 3 uM incubated for 24 hrs by Western blot analysis; assay type: cell-based
Target sequence in this assay (P40337 whole entry partner): as the sequence (P40337 whole entry partner) above
Target sequence in this assay (Q96KQ7 2-1210 limits assumed): as the sequence (Q96KQ7 2-1210 limits assumed) above

[11] = molecular target: T2, von Hippel-Lindau disease tumor suppressor/Histone-lysine N-methyltransferase EHMT2; assay: PROTAC activity at G9a/VHL in human 22Rv1 cells assessed as induction of G9a degradation incubated for 24 hrs by Western blot analysis; assay type: cell-based
[12] = molecular target: Histone-lysine N-methyltransferase SUV39H2 (Homo sapiens) (UniProt Q9H5I1); assay: Inhibition of SUV39H2 (unknown origin) at 10 uM relative to control
[13] = molecular target: Histone-lysine N-methyltransferase NSD2 (Homo sapiens) (UniProt O96028); assay: Inhibition of NSD2 (unknown origin) at 10 uM relative to control
[14] = Cmax in C57BL6 mouse plasma at 50 mg/kg, ip measured at 8 hrs by LC-MS/MS analysis; assay type: ADME, organism-based
[15] = molecular target: T2, von Hippel-Lindau disease tumor suppressor/Histone-lysine N-methyltransferase EHMT2; assay: PROTAC activity at G9a/VHL in human 22Rv1 cells assessed as induction of G9a degradation at 3 uM measured at 24 to 48 hrs by Western blot analysis; assay type: cell-based; conditions: time 24-48 hrs
Target sequence in this assay (P40337 whole entry partner): as the sequence (P40337 whole entry partner) above
Target sequence in this assay (Q96KQ7 2-1210 limits assumed): as the sequence (Q96KQ7 2-1210 limits assumed) above

[16] = molecular target: Protein arginine N-methyltransferase 6 (Homo sapiens) (UniProt Q96LA8); assay: Inhibition of PRMT6 (unknown origin) at 10 uM relative to control
Protein arginine N-methyltransferase 6 (Homo sapiens), sequence (Q96LA8 whole entry, looked up): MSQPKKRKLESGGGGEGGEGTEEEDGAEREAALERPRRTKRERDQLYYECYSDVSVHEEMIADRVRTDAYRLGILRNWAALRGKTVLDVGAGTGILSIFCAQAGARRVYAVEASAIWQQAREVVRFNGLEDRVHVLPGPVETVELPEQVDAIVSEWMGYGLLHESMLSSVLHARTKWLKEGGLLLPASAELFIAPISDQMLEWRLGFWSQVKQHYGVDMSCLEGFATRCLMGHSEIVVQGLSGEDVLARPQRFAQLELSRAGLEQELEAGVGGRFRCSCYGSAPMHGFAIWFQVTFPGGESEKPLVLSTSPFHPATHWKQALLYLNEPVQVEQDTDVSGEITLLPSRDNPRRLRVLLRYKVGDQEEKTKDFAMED

T1 sequence (P40337 whole entry partner): as the sequence (P40337 whole entry partner) above
T1 sequence (Q9H9B1 2-1298 limits assumed): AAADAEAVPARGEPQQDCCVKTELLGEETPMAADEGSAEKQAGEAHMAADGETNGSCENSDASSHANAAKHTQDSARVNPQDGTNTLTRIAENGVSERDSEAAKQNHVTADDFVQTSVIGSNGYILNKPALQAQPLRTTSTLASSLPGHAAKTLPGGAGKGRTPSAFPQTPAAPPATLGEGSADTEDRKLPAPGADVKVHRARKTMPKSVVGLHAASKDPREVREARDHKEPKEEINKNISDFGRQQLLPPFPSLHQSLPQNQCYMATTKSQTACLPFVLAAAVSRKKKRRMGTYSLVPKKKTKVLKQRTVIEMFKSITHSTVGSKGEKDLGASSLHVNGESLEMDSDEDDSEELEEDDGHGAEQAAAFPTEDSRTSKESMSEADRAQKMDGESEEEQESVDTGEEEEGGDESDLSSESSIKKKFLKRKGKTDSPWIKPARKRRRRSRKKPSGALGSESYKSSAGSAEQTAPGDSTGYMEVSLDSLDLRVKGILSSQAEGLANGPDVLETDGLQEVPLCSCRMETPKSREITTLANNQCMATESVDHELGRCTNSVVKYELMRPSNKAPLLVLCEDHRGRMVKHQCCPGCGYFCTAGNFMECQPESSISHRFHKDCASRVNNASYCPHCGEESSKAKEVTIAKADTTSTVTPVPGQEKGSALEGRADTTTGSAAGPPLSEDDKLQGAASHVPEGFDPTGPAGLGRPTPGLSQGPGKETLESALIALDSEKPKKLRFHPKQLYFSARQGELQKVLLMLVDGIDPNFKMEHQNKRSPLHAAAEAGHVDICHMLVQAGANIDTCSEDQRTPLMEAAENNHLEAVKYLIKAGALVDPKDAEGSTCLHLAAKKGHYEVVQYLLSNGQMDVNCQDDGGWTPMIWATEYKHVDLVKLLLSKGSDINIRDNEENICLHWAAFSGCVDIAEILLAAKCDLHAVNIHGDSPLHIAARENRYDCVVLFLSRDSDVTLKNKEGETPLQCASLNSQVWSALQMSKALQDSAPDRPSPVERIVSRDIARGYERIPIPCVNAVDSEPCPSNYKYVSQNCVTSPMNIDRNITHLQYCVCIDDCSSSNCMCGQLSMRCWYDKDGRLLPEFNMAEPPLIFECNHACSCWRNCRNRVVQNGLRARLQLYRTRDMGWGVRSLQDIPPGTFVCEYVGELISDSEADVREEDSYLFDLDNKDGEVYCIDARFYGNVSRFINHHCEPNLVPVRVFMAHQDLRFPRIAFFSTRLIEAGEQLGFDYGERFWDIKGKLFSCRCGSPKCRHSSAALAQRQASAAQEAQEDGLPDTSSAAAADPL
Histone-lysine N-methyltransferase NSD2 (Homo sapiens), sequence (O96028 whole entry): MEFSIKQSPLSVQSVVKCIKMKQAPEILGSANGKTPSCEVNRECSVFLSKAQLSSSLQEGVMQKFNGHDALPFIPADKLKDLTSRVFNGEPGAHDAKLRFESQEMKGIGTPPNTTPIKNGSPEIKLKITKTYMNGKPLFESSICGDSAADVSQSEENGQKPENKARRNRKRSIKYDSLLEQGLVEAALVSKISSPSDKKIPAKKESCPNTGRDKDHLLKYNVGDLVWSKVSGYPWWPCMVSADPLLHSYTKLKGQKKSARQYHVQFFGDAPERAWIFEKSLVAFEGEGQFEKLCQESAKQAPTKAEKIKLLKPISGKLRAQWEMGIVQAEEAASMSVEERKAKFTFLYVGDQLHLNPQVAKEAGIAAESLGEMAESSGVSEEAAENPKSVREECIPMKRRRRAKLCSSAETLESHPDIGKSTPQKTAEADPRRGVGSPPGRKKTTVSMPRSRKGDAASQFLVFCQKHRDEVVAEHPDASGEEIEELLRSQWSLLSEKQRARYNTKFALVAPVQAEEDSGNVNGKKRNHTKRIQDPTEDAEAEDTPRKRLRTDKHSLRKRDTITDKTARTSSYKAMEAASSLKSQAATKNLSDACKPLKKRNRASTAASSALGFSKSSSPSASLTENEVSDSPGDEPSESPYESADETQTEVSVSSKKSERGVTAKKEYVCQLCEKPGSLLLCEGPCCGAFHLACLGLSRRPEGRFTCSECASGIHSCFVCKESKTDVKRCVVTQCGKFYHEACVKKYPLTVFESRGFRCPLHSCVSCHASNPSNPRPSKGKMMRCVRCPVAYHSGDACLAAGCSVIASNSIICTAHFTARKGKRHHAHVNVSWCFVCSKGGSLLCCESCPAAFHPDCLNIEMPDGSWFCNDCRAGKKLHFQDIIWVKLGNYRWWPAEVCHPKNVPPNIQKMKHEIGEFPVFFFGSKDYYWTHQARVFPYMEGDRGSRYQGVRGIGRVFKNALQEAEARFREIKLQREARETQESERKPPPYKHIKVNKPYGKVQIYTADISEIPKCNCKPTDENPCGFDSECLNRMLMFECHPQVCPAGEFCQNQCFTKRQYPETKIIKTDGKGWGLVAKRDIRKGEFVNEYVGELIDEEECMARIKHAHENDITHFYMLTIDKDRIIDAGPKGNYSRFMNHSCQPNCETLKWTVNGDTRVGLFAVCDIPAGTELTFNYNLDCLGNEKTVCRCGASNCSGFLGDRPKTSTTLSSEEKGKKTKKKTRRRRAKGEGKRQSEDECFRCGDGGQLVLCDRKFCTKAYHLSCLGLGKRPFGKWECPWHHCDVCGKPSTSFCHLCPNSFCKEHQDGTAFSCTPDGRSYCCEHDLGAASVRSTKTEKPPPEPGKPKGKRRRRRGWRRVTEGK

inhibition [1]: > 50%
Emax [2]: > 99%
inhibition [3]: > 50%
inhibition [4]: > 50%
Activity [5]: Active
inhibition [6]: > 50%
Emax [7]: 73%
Activity [8]: Active
Activity [9]: Active
Activity [10]: Active
DC50 [11]: 0.274 µM
inhibition [12]: > 50%
inhibition [13]: > 50%
Cmax [14]: > 5 µM
Activity [15]: 100%
inhibition [16]: > 50%
Structure (SMILES): COc1cc2c(NC3CCN(CCCC(=O)NCCCCCCCCCCCC(=O)N[C@H](C(=O)N4C[C@H](O)C[C@H]4C(=O)NCc4ccc(-c5scnc5C)cc4)C(C)(C)C)CC3)nc(N3CCC(F)(F)CC3)nc2cc1OCCCN1CCCC1
inhibition (CWR22R): Active
Activity (PNT2): Non-Toxic
IC50 (K562): 2 µM
